# Experimental data: patent US6596863B2, “Medical composition containing nitroetheneamine Derivative or salt there of as active constituent” (Ishihara Sangyo Kaisha, Ltd., priority 1998, dated 2003)
# pIC50: −log10 of the molar value. Like-named read-outs stand apart in the source and are kept apart here.
# Key:
# [1] = molecular target: T1, human MMP-9 (gelatinase B) (Homo sapiens, UniProt P14780); assay: Inhibition activity against human MMP-9 (gelatinase B), fluorescent peptide substrate; format: biochemical
# T1 construct: endogenous in cells; host or cells: HT1080 human fibrosarcoma cells (ATCC CCL-121), PMA-stimulated; enzyme purified from the culture supernatant
# T1 sequence (P14780 107-707 limits assumed): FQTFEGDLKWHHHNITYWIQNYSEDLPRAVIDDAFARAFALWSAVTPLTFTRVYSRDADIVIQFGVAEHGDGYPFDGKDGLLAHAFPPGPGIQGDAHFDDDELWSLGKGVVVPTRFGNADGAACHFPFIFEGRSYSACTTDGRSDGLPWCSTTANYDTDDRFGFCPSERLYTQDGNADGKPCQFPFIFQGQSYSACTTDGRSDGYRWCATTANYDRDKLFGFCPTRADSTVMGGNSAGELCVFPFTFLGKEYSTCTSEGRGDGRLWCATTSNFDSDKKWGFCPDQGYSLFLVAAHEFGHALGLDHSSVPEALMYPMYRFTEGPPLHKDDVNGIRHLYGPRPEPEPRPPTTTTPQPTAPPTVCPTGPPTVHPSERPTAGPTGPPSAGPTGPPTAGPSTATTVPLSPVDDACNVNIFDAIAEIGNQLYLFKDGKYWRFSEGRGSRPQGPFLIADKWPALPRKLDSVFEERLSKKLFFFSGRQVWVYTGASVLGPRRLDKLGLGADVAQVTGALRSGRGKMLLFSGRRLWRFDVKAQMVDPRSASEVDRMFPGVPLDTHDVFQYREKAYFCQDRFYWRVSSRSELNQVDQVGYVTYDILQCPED
# Procedure: Human MMP-9 (gelatinase B) was purified by the following method from a culture supernatant of HT1080 cells (human fibrosarcoma).
# 2.5×10^6 HT1080 cells (ATCC CCL-121, purchased from Dainippon Seiyaku) were inoculated to a tissue culture dish (Code No. 3020-100, manufactured by Iwaki Glass Co., Ltd.) having a diameter of 10 cm and containing 10 ml of Dulbecco's Modified Eagle Medium (DME, No. D-5648, manufactured by Sigma Co.) containing 10% fetal bovine serum (FBS: REHATUIN™, Code No. 1020-90, manufactured by Intergen Co.) and cultured for 72 hours at 37° C. in an atmosphere comprising 5% of CO2 and 95% of air (Carbon Dioxide Incubator LNA-122D Model, manufactured by Tabai Co.). Then, the medium was changed to 10 ml of a DME culture medium containing no FBS, and phorbol 12-myristate 13-acetate (PMA, code No. 163-114851, manufactured by Wako Pure Chemical Industries, Ltd.) was added so that the final concentration became 10 ng/ml. Under the same conditions, the culturing was carried out for further 20 hours, whereupon the culture supernatant was collected and subjected to cool centrifugation at 4° C. for 5 minutes (cool centrifugal separator, manufactured by Hitachi) to remove cell fragments.
# The pH of a conditioned medium (50 ml) containing MMP-9, thus prepared, was adjusted to 8.0 with 0.2N NaOH. […] Namely, the above-mentioned conditioned medium was passed through DEAE-Sephacel (manufactured by Pharmacia, gel volume: about 35 ml) preliminarily equilibrated with 50 mM Tris-HCl, pH 8.0 (A buffer), and a non-adsorption fraction was collected. Then, it was added to Dye Matrix Gel Green A (manufactured by Amicon Co., gel volume: about 6 ml) preliminarily equilibrated with 50 mM Tris-HCl, pH 7.5/10 MM CaCl2/0.05% Brij 35/0.02% NaN3 (B buffer) and thoroughly washed with the same buffer, whereupon the adsorbed enzyme was eluted with a 1M NaCl-containing B buffer. About 7.5 ml of the eluted fraction was diluted twice with the B buffer and added to Gelatin-Sepharose 4B (manufactured by Pharmacia, gel volume: about 6 ml) preliminarily equilibrated with a 0.5 M NaCl-containing B buffer. It was thoroughly washed with a 0.5M NaCl-containing B buffer, and eluted with the B buffer containing 10% of dimethylsulfoxide (DMSO) and 0.5 M of NaCl. 5.5 ml of the eluted fraction was dialyzed against a 0.1 M NaCl-containing B buffer to obtain 5.2 ml of a purified enzyme solution. The purified MMP-9 standard product was confirmed to have a single band of 92 kDa by a protein staining by SDS electrophoresis, and further, it was confirmed to have an adequate gelatin decomposing activity by gelatinzymography (carried out in accordance with a method by Howard E. W. et al; Journal Biological Chemistry, Vol. 266, 13064-13069, 1991) and to have an adequate substrate decomposing activity by the after-mentioned measurement employing a fluorescent peptide substrate specific to MMP.
# The inhibition activity against human MMP-9 was measured by the following method in accordance with the method by C. G. Knight et al (FEBS Letters, Vol, 296, 263-266, 1992) employing a fluorescent peptide substrate (7-methoxycoumarin-4-yl)Acetyl-Pro-Leu-Gly-Leu-(3-[2,4-dinitrophenyl]—Ala—Arg-NH2, Code 3163-VC, manufactured by Peptide Institute, Inc.
# Further, as the case requires, commercially available human MMP-9 purified enzyme (No. YU-18003, manufactured by Kabushiki Kaisha Yagai Chuo Kenkyusho; used in a final concentration of from 0.0125 to 0.025 unit/ml, No. CC079, manufactured by Chemicon International, Inc.; used in a final concentration of 0.2 μg/ml) was used for the tests. […]
# [2] = intermediates, compounds of the formula (IV), 1st measurement, read-out: MMP-9 inhibition activities IC50, 1st
# [3] = intermediates, compounds of the formula (IV), 2nd measurement, read-out: MMP-9 inhibition activities IC50, 2nd
# [4] = intermediates, compounds of the formula (IV), average of 1st and 2nd (or single measurement), read-out: MMP-9 inhibition activities IC50, Average
# [5] = compounds of the formula (I), 1st measurement, read-out: MMP-9 inhibition activities IC50, 1st
# [6] = compounds of the formula (I), 2nd measurement, read-out: MMP-9 inhibition activities IC50, 2nd
# [7] = compounds of the formula (I), average of 1st and 2nd (or single measurement), read-out: MMP-9 inhibition activities IC50, Average
smiles,measurement,setting,value
CSC(=C[N+](=O)[O-])NC1CCCC1 [Intermediate 3],pIC50,[1]; [2],4.67
same,pIC50,[1]; [3],4.43
same,pIC50,[1]; [4],4.53
same,melting point,,82 to 87.5 °C
CCNC(=C[N+](=O)[O-])NNc1cc(C(F)(F)F)cc(Cl)n1 [compound 102],pIC50,[1]; [5],4.74
same,pIC50,[1]; [6],4.85
same,pIC50,[1]; [7],4.79
same,melting point,,206 °C (dec.)
"CSC(=C[N+](=O)[O-])NS(C)(=O)=O (single isomer, unassigned) [Intermediate 64]",pIC50,[1]; [2],5.36
same,pIC50,[1]; [4],5.36
CCCOc1ccc(NC(=C[N+](=O)[O-])NN)cc1 [compound 71],pIC50,[1]; [5],4.37
same,pIC50,[1]; [6],4.43
same,pIC50,[1]; [7],4.40
same,melting point,,179 °C (dec.)
CNC(=C[N+](=O)[O-])NNc1ccc2ccccc2n1 [compound 127],pIC50,[1]; [5],5.85
same,pIC50,[1]; [6],5.55
same,pIC50,[1]; [7],5.68
same,melting point,,202 °C (dec.)
CNC(=C[N+](=O)[O-])NNc1cc(C(F)(F)F)cc(OCCOCCOC)n1 [compound 194],pIC50,[1]; [5],5.31
same,pIC50,[1]; [6],5.08
same,pIC50,[1]; [7],5.17
same,melting point,,128 °C
CNC(=C[N+](=O)[O-])NNS(=O)(=O)c1ccccc1 [compound 109],pIC50,[1]; [5],4.68
same,pIC50,[1]; [6],4.57
same,pIC50,[1]; [7],4.62
same,melting point,,169 to 170 °C (dec.)
CNC(=C[N+](=O)[O-])NN=Cc1ccc2c(c1)OCO2 [compound 140],pIC50,[1]; [5],4.65
same,pIC50,[1]; [6],4.66
same,pIC50,[1]; [7],4.65
same,melting point,,180 °C (dec.)
"CNC(=C[N+](=O)[O-])NN=Cc1ccccn1 [Compound No. 29, 2-pyridinecarbaldehyde 1-methylamino-2-nitroethenylhydrazone]",pIC50,[1]; [5],4.51
same,pIC50,[1]; [6],4.61
same,pIC50,[1]; [7],4.56
"CSC(=C[N+](=O)[O-])NS(C)(=O)=O [Intermediate 57, N-(1-(methylthio)-2-nitroethenyl)methanesulfonamide]",pIC50,[1]; [2],4.31
same,pIC50,[1]; [3],4.43
same,pIC50,[1]; [4],4.36
NNC(=C[N+](=O)[O-])NC1CCCCC1 [compound 86],pIC50,[1]; [5],4.38
same,pIC50,[1]; [6],4.38
same,pIC50,[1]; [7],4.38
same,melting point,,196 °C (dec.)
COc1cccc(NC(=C[N+](=O)[O-])SC)c1 [Intermediate 20],pIC50,[1]; [2],4.41
same,pIC50,[1]; [3],4.30
same,pIC50,[1]; [4],4.35
same,melting point,,118 to 121 °C
NNC(=C[N+](=O)[O-])Nc1ccc(Cl)cc1 [compound 51],pIC50,[1]; [5],4.56
same,pIC50,[1]; [6],4.49
same,pIC50,[1]; [7],4.53
CNC(=C[N+](=O)[O-])NNS(=O)(=O)c1cccc2ccccc12 [compound 150],pIC50,[1]; [5],4.83
same,pIC50,[1]; [6],4.94
same,pIC50,[1]; [7],4.88
same,melting point,,168 °C (dec.)
"CNC(=C[N+](=O)[O-])NN(C)c1ncc(C(F)(F)F)cc1Cl [Compound No. 35, N-methyl-1-(2-methyl-2-(3-chloro-5-trifluoromethyl-2-pyridyl)hydrazino)-2-nitroetheneamine]",pIC50,[1]; [5],4.84
same,pIC50,[1]; [6],4.66
same,pIC50,[1]; [7],4.74
CSC(=C[N+](=O)[O-])NC(C)C [Intermediate 10],pIC50,[1]; [2],4.57
same,pIC50,[1]; [3],4.33
same,pIC50,[1]; [4],4.43
CNNC(=C[N+](=O)[O-])NC [compound 82],pIC50,[1]; [5],4.28
same,pIC50,[1]; [6],4.72
same,pIC50,[1]; [7],4.44
CCCCCCCCNC(=C[N+](=O)[O-])NN [compound 46],pIC50,[1]; [5],4.44
same,pIC50,[1]; [6],4.46
same,pIC50,[1]; [7],4.45
CCS(=O)(=O)NC(=C[N+](=O)[O-])SC [Intermediate 59],pIC50,[1]; [2],4.94
same,pIC50,[1]; [4],4.94
CNC(=C[N+](=O)[O-])NNS(C)(=O)=O [compound 108],pIC50,[1]; [5],4.82
same,pIC50,[1]; [6],4.46
same,pIC50,[1]; [7],4.60
CNC(=C[N+](=O)[O-])NNc1cc(C(F)(F)F)ncn1 [compound 97],pIC50,[1]; [5],4.34
same,pIC50,[1]; [6],4.45
same,pIC50,[1]; [7],4.39
O=[N+]([O-])C=C(NNc1ccccc1)Nc1ccccc1 [Compound No. 2],pIC50,[1]; [5],4.35
same,pIC50,[1]; [6],4.61
same,pIC50,[1]; [7],4.46
CNC(=C[N+](=O)[O-])NNc1ccccc1 [compound 84],pIC50,[1]; [5],4.36
same,pIC50,[1]; [6],4.85
same,pIC50,[1]; [7],4.54
CCCCNC(=C[N+](=O)[O-])NN [compound 85],pIC50,[1]; [5],4.28
same,pIC50,[1]; [6],4.39
same,pIC50,[1]; [7],4.33
CNC(=C[N+](=O)[O-])NN [compound 93],pIC50,[1]; [5],4.32
same,pIC50,[1]; [6],4.35
same,pIC50,[1]; [7],4.33
C=C1C(C)=NN/C(=C\[N+](=O)[O-])N1c1ccccc1 [compound 155],pIC50,[1]; [5],4.61
same,pIC50,[1]; [6],4.36
same,pIC50,[1]; [7],4.47
CNC(=C[N+](=O)[O-])SC [Intermediate 5],pIC50,[1]; [2],4.57
same,pIC50,[1]; [4],4.57
CSC(=C[N+](=O)[O-])Nc1ccc(Cl)cc1 [Intermediate 19],pIC50,[1]; [2],4.52
same,pIC50,[1]; [3],4.45
same,pIC50,[1]; [4],4.48
CONC(=C[N+](=O)[O-])SC [Intermediate 63],pIC50,[1]; [2],5.37
same,pIC50,[1]; [4],5.37
"CS(=O)(=O)NC(=C[N+](=O)[O-])NN1CCOCC1 [Compound No. 163, N-(1-(N-morpholino)amino-2-nitroethenyl)methanesulfonamide]",pIC50,[1]; [5],5.04
same,pIC50,[1]; [7],5.04
CC(C)NC(=C[N+](=O)[O-])NN [compound 88],pIC50,[1]; [5],4.42
same,pIC50,[1]; [6],4.24
same,pIC50,[1]; [7],4.32
CNC(=C[N+](=O)[O-])NN(C)C [compound 83],pIC50,[1]; [5],4.18
same,pIC50,[1]; [6],4.85
same,pIC50,[1]; [7],4.44
CCNC(=C[N+](=O)[O-])SC [Intermediate 6],pIC50,[1]; [2],4.48
same,pIC50,[1]; [4],4.48
